Assays:
Format in all cases: biochemical
[1] = target: T1, Recombinant human MMP9 catalytic domain (Homo sapiens, UniProt P14780); experiment: Isolated enzyme assay MMP9 (fluorogenic substrate); conditions: substrate Mca-Pro-Cha-Gly-Nva-His-Ala-Dpa-NH2 5 μM, 30 minutes at RT, pH 7.3, read-out: hMMP9 IC50
T1 sequence (P14780 with tags, fused parts or gaps DEL216-390): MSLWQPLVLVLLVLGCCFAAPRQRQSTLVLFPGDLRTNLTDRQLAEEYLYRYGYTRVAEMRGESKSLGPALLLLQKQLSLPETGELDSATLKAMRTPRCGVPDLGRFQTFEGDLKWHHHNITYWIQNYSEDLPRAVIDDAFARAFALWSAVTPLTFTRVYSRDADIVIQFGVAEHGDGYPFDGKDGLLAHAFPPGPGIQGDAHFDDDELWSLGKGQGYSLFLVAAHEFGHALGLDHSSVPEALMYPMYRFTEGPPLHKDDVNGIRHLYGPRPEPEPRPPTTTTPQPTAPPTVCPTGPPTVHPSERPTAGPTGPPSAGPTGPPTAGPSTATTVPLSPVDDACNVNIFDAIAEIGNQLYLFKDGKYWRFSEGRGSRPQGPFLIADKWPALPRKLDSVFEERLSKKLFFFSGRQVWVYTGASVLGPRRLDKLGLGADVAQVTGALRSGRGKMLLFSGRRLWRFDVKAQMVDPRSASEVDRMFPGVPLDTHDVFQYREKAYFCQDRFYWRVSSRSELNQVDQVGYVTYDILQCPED
Protocol: Recombinant human MMP9 catalytic domain was expressed and then purified by Zn chelate column chromatography followed by hydroxamate affinity column chromatography. The enzyme can be used to monitor inhibitors of activity as follows: MMP9 (5 ng/ml final concentration) is incubated for 30 minutes at RT with the synthetic substrate Mca-Pro-Cha-Gly-Nva-His-Ala-Dpa-NH2 (5 μM) in assay buffer (0.1M “Tris-HCl” (trade mark) buffer, pH 7.3 containing 0.1M NaCl, 20 mM CaCl2, 0.020 mM ZnCl and 0.05% (w/v) “Brij 35” (trade mark) detergent) in the presence (10 concentrations) or absence of inhibitors. Activity is determined by measuring the fluorescence at λex 320 nm and λem 405 nm. Percent inhibition is calculated as follows: % Inhibition is equal to the [Fluorescenceplus inhibitor−Fluorescencebackgound] divided by the [Fluorescenceminus inhibitor−Fluorescencebackground]. […]

[2] = target: T2, Recombinant human MMP14 catalytic domain (Homo sapiens, UniProt P50281); experiment: Isolated enzyme assay MMP14 (fluorogenic substrate); conditions: substrate Mca-Pro-Cha-Gly-Nva-His-Ala-Dpa-NH2 10 μM, 60 minutes at room temperature, pH 7.5, read-out: hMMP14 IC50
T2 construct: Recombinant human MMP14 catalytic domain; made in house
Protocol: Recombinant human MMP14 catalytic domain may be expressed and purified as described by Parkar A. A. et al, (2000), Protein Expression and Purification, 20, 152. The purified enzyme can be used to monitor inhibitors of activity as follows: MMP14 (10 ng/ml final concentration) is incubated for 60 minutes at room temperature with the synthetic substrate Mca-Pro-Cha-Gly-Nva-His-Ala-Dpa-NH2 (10 μM) in assay buffer (0.1M “Tris-HCl” (trade mark) buffer, pH 7.5 containing 0.1M NaCl, 20 mM CaCl2, 0.020 mM ZnCl and 0.05% (w/v) “Brij 35” (trade mark) detergent) in the presence (5 concentrations) or absence of inhibitors. Activity is determined by measuring the fluorescence at λex 320 nm and λem 405 nm. Percent inhibition is calculated as follows: % Inhibition is equal to the [Fluorescenceplus inhibitor−Fluorescencebackground] divided by the [Fluorescenceminus inhibitor−Fluorescencebackground].

[3] = target: T3, Recombinant human MMP12 catalytic domain (Homo sapiens, UniProt P39900); experiment: Isolated enzyme assay MMP12 (fluorogenic substrate); conditions: substrate Mca-Pro-Cha-Gly-Nva-His-Ala-Dpa-NH2 10 μM, 60 minutes at room temperature, pH 7.3, read-out: hMMP12 IC50
T3 construct: Recombinant human MMP12 catalytic domain; made in house
T3 sequence (P39900 106-263 limits assumed): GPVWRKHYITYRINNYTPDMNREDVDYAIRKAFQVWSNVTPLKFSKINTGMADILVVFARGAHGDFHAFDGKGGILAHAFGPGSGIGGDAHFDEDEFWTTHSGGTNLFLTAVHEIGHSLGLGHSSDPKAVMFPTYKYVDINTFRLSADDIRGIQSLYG
Protocol: Recombinant human MMP12 catalytic domain may be expressed and purified as described by Parkar A. A. et al, (2000), Protein Expression and Purification, 20, 152. The purified enzyme can be used to monitor inhibitors of activity as follows: MMP12 (50 ng/ml final concentration) is incubated for 60 minutes at room temperature with the synthetic substrate Mca-Pro-Cha-Gly-Nva-His-Ala-Dpa-NH2 (10 μM) in assay buffer (0.1M “Tris-HCl” (trade mark) buffer, pH 7.3 containing 0.1M NaCl, 20 mM CaCl2, 0.020 mM ZnCl and 0.05% (w/v) “Brij 35” (trade mark) detergent) in the presence (10 concentrations) or absence of inhibitors. Activity is determined by measuring the fluorescence at λex 320 nm and λem 405 nm. Percent inhibition is calculated as follows: % Inhibition is equal to the [Fluorescenceplus inhibitor−Fluorescencebackground] divided by the [Fluorescenceminus inhibitor−Fluorescencebackground]. MMP8

Compound	IC50 [1]	IC50 [2]	IC50 [3]
C[C@]1(CS(=O)(=O)N2CCc3cc(-c4cnc(C(F)(F)F)nc4)ccc3C2)NC(=O)NC1=O [Example 1, (5)-5-Methyl-5-({[6-[2-(trifluoromethyl)pyrimidin-5-yl]-3,4-dihydroisoquinolin-2(1H)-yl]sulfonyl}methyl)imidazolidine-2,4-dione]	29.3 nM	> 10000 nM	10.4 nM
C[C@]1(CS(=O)(=O)N2CCc3cc(-c4ccc(Cl)cc4)ccc3C2)NC(=O)NC1=O [Example 2, (5S)-5-({[6-(4-Chlorophenyl)-3,4-dihydroisoquinolin-2(1H)-yl]sulfonyl}methyl)-5-methylimidazolidine-2,4-dione]	3.5 nM	415 nM	1.4 nM
C[C@]1(CS(=O)(=O)N2CCc3cc(-c4ccc(Cl)cc4)ncc3C2)NC(=O)NC1=O [Example 5, (5S)-5-({[6-(4-Chlorophenyl)-3,4-dihydro-2,7-naphthyridin-2(1H)-yl]sulfonyl}methyl)-5-methylimidazolidine-2,4-dione]	8.3 nM	1990 nM	7 nM
